Laboratory results from patent publication US11464768B2, “Pimavanserin alone or in combination for use in the treatment of Alzheimer's disease psychosis” (ACADIA Pharmaceuticals Inc., priority 2016, dated 2022).

Assays:
[1] = system: ADP patients; experiment: Same twelve-week study: cognitive status by Mini-Mental State Examination (MMSE); assay type: in vivo, human; conditions: 34 mg once daily; 12 week study
Procedure: In some embodiments the effect of the treatment is an antipsychotic effect, for example determined by an improved patient score in the Neuropsychiatric Inventory-Nursing Home Version (NPI-NH) psychosis scale, without impairing cognition, as determined by Mini-Mental State Examiner (MMSE) score. In some embodiment the antipsychotic effect without impairing cognition is determined over the 12 weeks of treatment. The MMSE is a brief 30-point questionnaire that is used to quantitatively assess cognition (Folstein et al., Journal of Psychiatric Research. 12 (3): 189-98, 1975). The MMSE test includes simple questions and problems in a number of areas: the time and place of the test, repeating lists of words, arithmetic, language use and comprehension, and copying a drawing. […]
Each patient participated in a 3-week screening period, a 12-week double-blind treatment period, and a 4-week follow-up period. […] The safety of subjects was assessed by monitoring adverse events, physical examinations, vital signs, clinical laboratory tests (hematology, clinical chemistry, and urinalysis), and electrocardiograms. Furthermore cognitive status was assessed via MMSE.

[2] = system: ADP patients; experiment: Twelve-week randomized, double-blind, placebo-controlled study in ADP patients: NPI-NH psychosis score (Domains A and B); assay type: in vivo, human; conditions: for improvement in psychosis at day 43 / improvement in psychosis at day 43 (NPI-NH Psychosis subscale): Table 2 Delta; for NPI-NH PSYCHOSIS SCORE at day 43, Effect Size: pimavanserin vs placebo
Description: To determine the score for a given domain, the caregivers rate frequency and severity of the resident's behavior for that particular domain. The frequency is rated on a 0-4 point scale. For example, the frequency is rated as a) 0 for not present; b) 1 for occasional; c) 2 for often; d) 3 for frequent; and e) 4 for very frequent occurrence of the behavior in question. The severity is rated on a 1-3 point scale. For example, the severity is rated as a) 1 for mild; b) 2 for moderate; and 3 for severe. The score of each domain is determined by multiplying the frequency rating score by the severity rating score. The score of each domain ranges from 0 to 12.
A psychosis score on the psychosis subscale is the total score of the score of delusions (Domain A) and hallucinations (Domain B). For example, when the delusions score (Domain A) is 4 and the hallucinations score (Domain B) is 6, the psychosis score is 10. The psychosis score typically ranges from 0 to 24.
A twelve-week, randomized, double-blind, placebo-controlled, single-center study was conducted in ADP patients in nursing homes. A purpose of the study was to evaluate the safety and efficacy of 34 mg pimavanserin compared to placebo in the treatment of ADP.
A total of 181 nursing home patients were enrolled in the study and randomized on a one-to-one basis to receive either 34 mg of pimavanserin or placebo once daily for twelve weeks, following a three-week screening period including brief psycho-social therapy. Patients with Alzheimer's disease (AD) are defined by the National Institute of Neurological and Communicative Disorders and Stroke-Alzheimer's Disease and Related Disorder Association (NINCDS-ADRDA) criteria for possible or probable AD (McKhann et al., Neuro., 1984, vol. 34, 939-944.) The mean age of patients in the study was 86 years.
After completing initial Screening Visit procedures (SV1), patients entered a 3-week screening period with antipsychotic medication washout. During the screening period, the patients received brief psychosocial therapy (BPST; Ballard et al., 2009) following best practice guidelines and safety assessments were performed. After the first Screening Visit (SV1), there were two additional contacts at weekly intervals with the BPST caregiver by phone (SV2 and SV3) to support the patient and the BPST caregiver in this screening phase. Safety assessments were also collected during this phase. At the discretion of the investigator and upon consultation with the Medical Monitor, patients were randomized into the double-blind phase of the study at any time during the screening period if there is a substantial worsening of psychotic symptoms.
Patients were randomized to one of two treatment groups in a 1:1 ratio (pimavanserin 34 mg or placebo), stratified by Baseline Mini-Mental State Examination (MMSE) total score and Neuropsychiatric Inventory-Nursing Home Version (NPI-NH) psychosis score (Domains A and B) (4 levels: MMSE<6 and NPI-NH<12, MMSE>6 and NPI-NH<12, MMSE<6 and NPI-NH>12, MMSE>6 and NPI-NH>12), and entered a 12 week double-blind treatment period.
Nursing home staff administered the study drug to the patient each morning as a single oral dose (2×17 mg tablets) beginning within 24 hours of completion of all baseline assessments (Day 1). During the double-blind treatment period, study visits were performed as follows: Baseline, Day 15, Day 29, Day 43, Day 64, and Day 85 (or early termination). A follow-up telephone safety visit occurred 4 weeks after the last dose of study medication. The NPI-NH psychosis subscale (Delusions+Hallucinations domains) was used to assess psychosis. Behavioral symptoms were assessed using the NPI-NH Total and Individual Behavioral Domain scores and the Cohen-Mansfield Agitation Inventory—Short Form (CMAI-SF). […]

[3] = system: DOI ((±)-2,5-dimethoxy-4-iodoamphetamine, a serotonin agonist) induced head twitches; conditions: rat; effective in these models at oral doses of 3 and 10 mg/kg; cited from earlier work

For CC(C)COc1ccc(CNC(=O)N(Cc2ccc(F)cc2)C2CCN(C)CC2)cc1 [Pimavanserin, N-(1-methylpiperidin-4-yl)-N-(4-fluorophenylmethyl)-N′-(4-(2-methylpropyloxy)phenylmethyl)carbamide], the “cognition as measured by the Mini-Mental State Examination (MMSE) score” value [1] was “did not impair cognition”, the durability of efficacy ([2]; 34 mg once daily, 12 week study) was “demonstrated an efficacy throughout the 12 week study” and the “NPI-NH PSYCHOSIS SCORE at day 43, Pimavanserin Group (change from baseline)” value (“NPI-NH PSYCHOSIS SCORE … (change from baseline)” below) ([2]; 34 mg once daily, subgroup Baseline Agitation/Aggression Score <6 (n = 85), post-hoc analysis) was −1.40. For the same compound, the “NPI-NH PSYCHOSIS SCORE … (change from baseline)” value ([2]; 34 mg once daily, subgroup Baseline Agitation/Aggression Score ≥6 (n = 93), post-hoc analysis) was −6.09, the “NPI-NH PSYCHOSIS SCORE … (change from baseline)” value ([2]; 34 mg once daily, subgroup Baseline NPI-NH Psychosis Score <12 (n = 57), negative = improvement) was −0.58 and the “NPI-NH PSYCHOSIS SCORE … (change from baseline)” value ([2]; 34 mg once daily, subgroup Baseline NPI-NH Psychosis Score ≥12 & Agitation/Aggression Score ≥6 (n = 38), post-hoc analysis) was −10.93. For the same compound, the “NPI-NH PSYCHOSIS SCORE … (change from baseline)” value ([2]; 34 mg once daily, subgroup Baseline NPI-NH Psychosis score ≥12 (n = 121), negative = improvement) was −10.15, the “NPI-NH PSYCHOSIS SCORE … (change from baseline)” value ([2]; 34 mg once daily, subgroup No Prior Anti-psychotic use (n = 162)) was −4.15 and the “NPI-NH PSYCHOSIS SCORE … (change from baseline)” value ([2]; 34 mg once daily, subgroup Prior Anti-psychotic use (n = 16)) was −1.52. For the same compound, the “improvement in psychosis, NPI-NH Psychosis score (combined hallucinations and delusions domains), primary endpoint” value ([2]; 34 mg once daily, week 6, all patients, baseline mean 9.52, placebo 1.93 point, p=0.0451) was 3.76 point, the “improvement in psychosis at day 43” value ([2]; baseline NPI-NH Psychosis score of 12 or greater and baseline Agitation/Aggression score of 6 or greater, p-value=0.0010) was 7.18 and the “effect on NPI-NH psychosis score (in words)” value (shortened to “effect … (in words)”) ([2]; baseline NPI-NH psychosis score of 12 or greater and baseline Agitation/Aggression score of 6 or greater, p=0.0010) was “effectively reduced”. For the same compound, the “improvement in psychosis at day 43” value ([2]; patients having a baseline NPI-NH Agitation/Aggression score of 6 or greater, p-value=0.0010) was 4.41 point, the “effect … (in words)” value ([2]; patients having a baseline NPI-NH Agitation/Aggression score of 6 or greater, p=0.001) was “effectively reduced” and the “aggravating in psychosis at day 43” value ([2]; patients having a baseline NPI-NH Agitation/Aggression score of less than 6, p-value=NS) was 0.42. The “improvement in psychosis at day 43 (NPI-NH Psychosis subscale)” value ([2]; patients having a baseline NPI-NH Psychosis score of 12 or greater, p-value=0.0114) was 4.43 point, the “effect … (in words)” value ([2]; patients having a baseline NPI-NH psychosis score of 12 or greater, p=0.0114) was “effectively reduced” and the “improvement in psychosis at day 43 (NPI-NH Psychosis subscale)” value ([2]; patients having a baseline NPI-NH psychosis score of less than 12, p-value=NS) was 0.42. For the same compound, the “improvement in psychosis at day 43” value ([2]; patients that had anti-psychotic use prior to the baseline measurement on day 0, p-value=NS) was 6.53 point, the “effect … (in words)” value ([2]; patients who had prior anti-psychotic use) was “effectively reduced” and the “reduction of mean NPI-NH Psychosis score from baseline” value ([2]; pimavanserin arm, baseline NPI-NH Psychosis score of 12 or greater, baseline 15.30, day 43) was 66.3%. For the same compound, the “mean NPI-NH Psychosis score at day 43” value ([2]; pimavanserin arm, baseline NPI-NH Psychosis score of 12 or greater, baseline score 15.30) was 5.15, the “NPI-NH PSYCHOSIS SCORE at day 43, Effect Size” value ([2]; subgroup Baseline Agitation/Aggression Score <6 (n = 85), post-hoc) was 0.122 and the “NPI-NH PSYCHOSIS SCORE at day 43, Effect Size” value ([2]; subgroup Baseline Agitation/Aggression Score ≥6 (n = 93), post-hoc) was −0.778. For the same compound, the “NPI-NH PSYCHOSIS SCORE at day 43, Effect Size” value ([2]; subgroup Baseline NPI-NH Psychosis Score <12 (n = 57)) was −0.077, the “NPI-NH PSYCHOSIS SCORE at day 43, Effect Size” value ([2]; subgroup Baseline NPI-NH Psychosis Score ≥12 & Agitation/Aggression Score ≥6 (n = 38), post-hoc) was −1.225 and the “NPI-NH PSYCHOSIS SCORE at day 43, Effect Size” value ([2]; subgroup Baseline NPI-NH Psychosis score ≥12 (n = 121)) was −0.734. For the same compound, the “NPI-NH PSYCHOSIS SCORE at day 43, Effect Size” value ([2]; subgroup No Prior Anti-psychotic use (n = 162)) was −0.351, the “NPI-NH PSYCHOSIS SCORE at day 43, Effect Size” value ([2]; subgroup Prior Anti-psychotic use (n = 16)) was −0.905 and the “NPI-NH PSYCHOSIS SCORE at day 43, Delta (difference between placebo group and pimavanserin group in change from baseline)” value ([2]; subgroup Baseline Agitation/Aggression Score <6 (n = 85), post-hoc, P-Value NS) was 0.68. For the same compound, the “NPI-NH PSYCHOSIS SCORE at day 43, Delta (difference between placebo group and pimavanserin group in change from baseline)” value ([2]; subgroup Baseline Agitation/Aggression Score ≥6 (n = 93), post-hoc, P-Value 0.0010) was −4.41, the “NPI-NH PSYCHOSIS SCORE at day 43, Delta (difference between placebo group and pimavanserin group in change from baseline)” value ([2]; subgroup Baseline NPI-NH Psychosis Score <12 (n = 57), P-Value NS) was −0.42 and the “NPI-NH PSYCHOSIS SCORE at day 43, Delta (difference between placebo group and pimavanserin group in change from baseline)” value ([2]; subgroup Baseline NPI-NH Psychosis Score ≥12 & Agitation/Aggression Score ≥6 (n = 38), post-hoc, P-Value 0.0010) was −7.18. The “NPI-NH PSYCHOSIS SCORE at day 43, Delta (difference between placebo group and pimavanserin group in change from baseline)” value ([2]; subgroup Baseline NPI-NH Psychosis score ≥12 (n = 121), P-Value 0.0114) was −4.43, the “NPI-NH PSYCHOSIS SCORE at day 43, Delta (difference between placebo group and pimavanserin group in change from baseline)” value ([2]; subgroup No Prior Anti-psychotic use (n = 162), P-Value 0.0374) was −1.90 and the “NPI-NH PSYCHOSIS SCORE at day 43, Delta (difference between placebo group and pimavanserin group in change from baseline)” value ([2]; subgroup Prior Anti-psychotic use (n = 16), P-Value NS) was −6.53. For the same compound, the “treatment effect in patients with a concomitant Selective Serotonin Reuptake Inhibitor (SSRI) use” value ([2]; subgroup analysis, compared with no concomitant SSRI use) was “treatment effect larger than those with no concomitant SSRI use”, the “efficacious effect relative to placebo” value ([2]; worded as an embodiment) was “about 2 times” and the “activity in DOI induced head twitches” value [3] was “active”.
